Source: patent publication US10080807B2 (LIPOMEDIX PHARMACEUTICALS LTD., priority 2014, dated 2018)

Experiments:
[1] = system: C26 (colon carcinoma) mouse tumor model; test: Anti-tumor effect in colon carcinoma tumor model (Example 6); type: in vivo; conditions: C26 ip in BALB/c mice; gemcitabine 100 mg/kg ip or paclitaxel 15 mg/kg ip days 5, 8, 12, 15, alone or with prodrug 30 mg/kg iv; 45 days
Description: C26 (colon carcinoma) mouse tumor model was used by injecting BALB/c F intraperitoneally with 1 million tumor cells.

[2] = system: N87 human gastric tumor model; conditions: N87 in footpad of nude mice; mitomycin C 5 mg/kg iv or prodrug 35 mg/kg iv days 6, 13; paclitaxel 15 mg/kg ip days 6, 10, 13, 17; mice with unacceptable toxicity removed
Description: An N87 human gastric tumor model was selected, and established by inoculating N87 tumor cells into the footpad of nude mice via subcutaneous (sc) injection. The day of sc injection with tumor cells was defined as study day zero.
The tumor size of the animals in each treatment group was measured.

[3] = system: subcutaneous 4T1 breast mouse tumor model; conditions: day 5 iv; mitomycin C 6 mg/kg; prodrug 40 mg/kg; combination prodrug 30 mg/kg + liposome-entrapped doxorubicin 8 mg/kg; median tumor size
Description: A subcutaneous 4T1 breast mouse tumor model was selected, and established by inoculating tumor cells subcutaneously into BALB/c f mice. The day of sc injection with tumor cells was defined as study day zero.

[4] = system: human A375 melanoma subcutaneous tumor model; conditions: prodrug 25 mg/kg iv days 11, 18; paclitaxel 15 mg/kg ip days 11, 14, 18, 21; alone or combined
Description: A human A375 melanoma subcutaneous tumor model was selected, and established by inoculating tumor cells into nude mice via subcutaneous (sc) injection. The day of sc injection with tumor cells was defined as study day zero.
The tumor size of the animals (n=6) in each treatment group was measured, and the median tumor size (in mm) is shown in FIG. 6 as a function of days post tumor inoculation.

[5] = system: N87 human gastric tumor model; test: Anti-tumor effect in gastric tumor model (Example 7); type: in vivo
Description: An N87 human gastric tumor model was selected, and established by inoculating 10^6 N87 tumor cells into the footpad of nude mice via subcutaneous (sc) injection. The day of sc injection with tumor cells was defined as study day zero.

Row | Compound | survival (in words) [1] | tumor size (in words) [2] | tumor growth (in words) [3] | tumor growth (in words) [4] | animals tumor free at observation day 50 ([5]; N87 in footpad of nude mice, prodrug 25 mg/kg iv days 5, 12, paclitaxel 15 mg/kg ip days 5, 8, 12, 15) | reduction in tumor volume ([5]; individual tumor volumes measured to 48 days post inoculation (FIGS. 5C-5H))
1 | Nc1ccn([C@@H]2O[C@H](CO)[C@@H](O)C2(F)F)c(=O)n1 [gemcitabine, 2′-deoxy-2′,2′-difluoro-cytidine] | fared poorly, with nearly all animals failing to survive the study period |  |  |  |  | 
2 | CO[C@@]12[C@H](COC(N)=O)C3=C(C(=O)C(C)=C(N)C3=O)N1C[C@@H]1N[C@@H]12 [mitomycin C] |  | continuous increase in tumor size | continued growth in tumor size |  |  | 
3 | CC(=O)O[C@H]1C(=O)[C@@]2(C)[C@H]([C@H](OC(=O)c3ccccc3)[C@]3(O)C[C@H](OC(=O)[C@H](O)[C@@H](NC(=O)c4ccccc4)c4ccccc4)C(C)=C1C3(C)C)[C@]1(OC(C)=O)CO[C@@H]1C[C@@H]2O [paclitaxel] | fared poorly, with nearly all animals failing to survive the study period | continuous increase in tumor size |  | either a shorter plateau period of attenuated tumor growth or an increase in tumor growth sooner than animals treated with the combination therapy | two of eight animals | Reduction in tumor volume was not observed
